{
  "source": "patent US20230233484A1",
  "about": "“USE OF VITAMIN K IN PREVENTING OR COU[…]-19 DISEASE AND DIAGNOSTIC TEST TO ESTIMATE THE RISK OF […] DISEASE OR MORTALITY BY COVID-19” (EMPHYSEMA SOLUTIONS BV, priority 2020, published 2023)",
  "key": {"Covid-19 [1]": {"test_system": "Covid-19", "assay": "Ongoing intervention trial of vitamin K administration in Covid-19 patients", "format": "in vivo", "conditions": "twelve Covid-19 patients have received treatment", "from_the_text": "(§1) Procoagulant prothrombin activation by vitamin K remained preserved in the majority of Covid-19 patients. Impaired MGP activation was linked to accelerated elastic fiber degradation and premorbid vascular calcifications. About fifty percent of total anticoagulant protein S is activated extra-hepatically by vitamin K, and this activation is likely also impaired during Covid-19. Given the fact that procoagulant activity remains intact, this is compatible with the increased thrombogenicity that is frequently observed in severe Covid-19. Based on our findings we expect that increasing MGP and protein S activity by vitamin K administration will considerably improve Covid-19 outcomes. An intervention trial to confirm this hypothesis is currently ongoing."}, "dp-ucMGP": {"test_system": "dp-ucMGP", "sequence (P08493 20-96)": "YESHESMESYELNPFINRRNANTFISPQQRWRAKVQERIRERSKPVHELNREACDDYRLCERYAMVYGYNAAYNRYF", "conditions": "vitamin K supplementation; cited from earlier work"}, "Covid-19 [2]": {"test_system": "Covid-19", "assay": "Cohort of hospitalized COVID-19 patients treated with vitamin K, compared with previous COVID-19 cohorts", "format": "in vivo", "conditions": "hospitalized COVID-19 cohort treated with vitamin K vs previous COVID-19 cohorts from the same hospital", "from_the_text": "as §1"}},
  "data": [
    {"substance": "vitamin K", "values": [
      {"measurement": "safety issues", "setting": "Covid-19 [1]", "value": "no unexpected safety issues"},
      {"measurement": "effect on dp-ucMGP levels", "setting": "dp-ucMGP", "value": "reducing effect"},
      {"measurement": "ICU admission rate", "setting": "Covid-19 [2]", "value": "significantly lower"},
      {"measurement": "mortality", "setting": "Covid-19 [2]", "value": "significantly lower"}
    ]}
  ]
}
